From patent US9636299B2, “Method for treating diabetic retinopathy” (XAVIER UNIVERSITY OF LOUISIANA, priority 2012, dated 2017)
Residues, ends and D or L forms follow the SMILES beside them.

What was measured:
[1] = test system: heparanase; experiment: Heparanase expression in high glucose-treated hRMECs (Western blot); type: cell-based, human; settings: 30 mM glucose 72 hours, 50 or 100 μM apoEdp
Text: (§1) Cell Culture. Primary cultures of human retina microvascular endothelial cells (hRMECs) were purchased from the Applied Cell Biology Research Institute and grown on attachment factor-coated plates in cell systems complete (CSC) medium (Cell Systems, Kirkland, Wash.) supplemented with 20% fetal bovine serum, culture boost (animal derived growth factors) and bac-off (antibiotics). The primary hRMECs were used in their passages 4 to 6. The 18-a.a. apoE mimetic peptide apoEdp (SEQ ID NO:3, Ac-LRKLRKRLLLRKLRKRLL-amide), derived from the human apolipoprotein E receptor-binding region (see SED ID NO:1) between residues 141 and 149, was synthesized (Genemed, Arlington, Tex.) with a purity of greater than 95%. The apoEdp peptide was dissolved in phosphate-buffered saline (“PBS”) at a concentration appropriate for further experimental use. […]
(§2) Western Blotting. […] The total protein concentration was determined using a BCA protein assay kit (Pierce, Rockford, Ill.). […] To ensure the equal loading of protein in each lane, each membrane was stripped and re-probed with an antibody against β-actin, and the chemiluminescence was detected as described previously. After scanning the blots with a flatbed scanner, band intensities were analyzed using ImageJ (NIH) and the relative intensity values were normalized to control values. […]

[2] = test system: MMP9; experiment: MMP9 expression in high glucose-treated hRMECs (Western blot); type: cell-based, human; settings: 30 mM glucose 72 hours, 50 or 100 μM apoEdp
Text: as §1, §2

`CC(=O)N[C@@H](CC(C)C)C(=O)N[C@@H](CCCNC(=N)N)C(=O)N[C@@H](CCCCN)C(=O)N[C@@H](CC(C)C)C(=O)N[C@@H](CCCNC(=N)N)C(=O)N[C@@H](CCCCN)C(=O)N[C@@H](CCCNC(=N)N)C(=O)N[C@@H](CC(C)C)C(=O)N[C@@H](CC(C)C)C(=O)N[C@@H](CC(C)C)C(=O)N[C@@H](CCCNC(=N)N)C(=O)N[C@@H](CCCCN)C(=O)N[C@@H](CC(C)C)C(=O)N[C@@H](CCCNC(=N)N)C(=O)N[C@@H](CCCCN)C(=O)N[C@@H](CCCNC(=N)N)C(=O)N[C@@H](CC(C)C)C(=O)N[C@@H](CC(C)C)C(N)=O` [apoEdp, Ac-LRKLRKRLLLRKLRKRLL-amide] (Ac-LRKLRKRLLLRKLRKRLL-NH2) was tested, and the “High glucose-induced expression of heparanase” value [1] was “suppressed the expression” and the “High glucose-induced expression of MMP9” value [2] was “suppressed the expression”.
